Assay results from patent US20160367490A1, “MULTI-LAYER TOPICALLY-APPLIED ARTICLE FOR PROVIDING A BENEFIT TO SKIN” (Johnson & Johnson Consumer Inc., priority 2015, published 2016).

Assay: Franz cell skin delivery of hexylresorcinol (HPLC)
Format: in vitro ADME
Conditions: Franz cells, n=4, FIG. 3
Source text: Wash Franz cells with ethanol 70%, water and receptor solution (1×PBS, phosphate buffered saline).
Measure skin thickness and electrical resistance
Mount the tissue on Franz cells (n=4).
Once equilibrated, make sure there isn't excess moisture on the surface of the tissue (SC) by dabbing the skin surface with Kimwipes.
Carefully remove the backing on the film and place it on the donor area with a light pressure (5 times tap on skin surface); the adhesive side is in touch with skin.
Mount the donor chamber and leave it overnight
Next morning (After 16 h time point), take a sample (300 uL) (Oh), replace with fresh 1×PBS.
Add 100 uL 1×PBS to the donor chamber, let it sit for 30 sec, remove it using a plastic pipet moving around the edge of the donor. Repeat this cycle 5 times. Pool these 1×PBS solution and analyze by HPLC
Remove the donor chamber with the tissue still mounted on the Franz cells. Use a cotton swab to take out all the remained liquid on skin. Extract drug from this swab by shaking at 100 rpm overnight in 2 mL ethanol: Water (50:50 v/v).
Put the donor chamber back. After every 2 hours (2,4,6 h), take sample (300 uL) and replace with fresh receptor solution.
At 22 h, remove the donor chamber, remove skin from cells, put skin on sheets of paper and do tape stripping with 2 tapes to remove the excessive drug on skin surface. Put these 2 tapes in a well in 6-well plate for extraction. […]

For `CCCCCCCC/C=C\CCCCCCCC(=O)OCC(O)CO` (stereo not shown) [Monumuls, glycerol oleate], the “delivery of the hexylresorcinol compared to Example 16C (no emulsifier)” value was “greatly enhanced”.
